Laboratory results published in US10231954B2, “Neurodegenerative therapies” (LYTIX BIOPHARMA AS, priority 2014, dated 2019).
Read-outs that look alike come from different tables or passages of the source.

Tests used:
Format in all cases: biochemical
TLK1 = molecular target: T1, TLK1 (Homo sapiens, UniProt Q9UKI8); test: Kinase profiling TLK1; details: for remaining activity at 100 µM: read-out: residual kinase activity, TLK1
T1 sequence (Q9UKI8 1-766): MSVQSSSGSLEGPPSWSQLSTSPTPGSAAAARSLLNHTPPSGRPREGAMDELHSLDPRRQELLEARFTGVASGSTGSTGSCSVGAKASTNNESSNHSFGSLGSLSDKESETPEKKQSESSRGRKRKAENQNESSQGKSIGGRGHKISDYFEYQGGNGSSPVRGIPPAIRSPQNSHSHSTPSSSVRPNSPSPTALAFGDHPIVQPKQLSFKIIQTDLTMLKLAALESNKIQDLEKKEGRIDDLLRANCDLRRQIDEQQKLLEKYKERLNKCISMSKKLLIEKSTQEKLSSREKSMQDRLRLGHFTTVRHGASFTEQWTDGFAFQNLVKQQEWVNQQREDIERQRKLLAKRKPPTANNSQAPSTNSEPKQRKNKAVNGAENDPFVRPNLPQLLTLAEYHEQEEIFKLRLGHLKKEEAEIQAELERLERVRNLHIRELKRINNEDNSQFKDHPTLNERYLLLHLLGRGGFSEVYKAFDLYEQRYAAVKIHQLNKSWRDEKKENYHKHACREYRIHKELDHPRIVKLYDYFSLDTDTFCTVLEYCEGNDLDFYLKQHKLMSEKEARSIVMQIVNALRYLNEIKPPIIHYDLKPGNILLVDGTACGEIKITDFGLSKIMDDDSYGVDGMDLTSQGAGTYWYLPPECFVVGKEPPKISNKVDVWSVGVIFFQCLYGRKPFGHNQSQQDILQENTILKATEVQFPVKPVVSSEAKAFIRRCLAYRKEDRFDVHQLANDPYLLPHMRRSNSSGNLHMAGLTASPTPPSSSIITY
Text: (§1) Any value less that 25 is considered to be highly significant inhibition.

MAPKAP-K3 = MAPKAP-K3 (Homo sapiens, UniProt Q16644); test: Kinase profiling MAPKAP-K3; details: for remaining activity at 100 µM: read-out: residual kinase activity, MAPKAP-K3
MAPKAP-K3, sequence (Q16644 whole entry, species assumed): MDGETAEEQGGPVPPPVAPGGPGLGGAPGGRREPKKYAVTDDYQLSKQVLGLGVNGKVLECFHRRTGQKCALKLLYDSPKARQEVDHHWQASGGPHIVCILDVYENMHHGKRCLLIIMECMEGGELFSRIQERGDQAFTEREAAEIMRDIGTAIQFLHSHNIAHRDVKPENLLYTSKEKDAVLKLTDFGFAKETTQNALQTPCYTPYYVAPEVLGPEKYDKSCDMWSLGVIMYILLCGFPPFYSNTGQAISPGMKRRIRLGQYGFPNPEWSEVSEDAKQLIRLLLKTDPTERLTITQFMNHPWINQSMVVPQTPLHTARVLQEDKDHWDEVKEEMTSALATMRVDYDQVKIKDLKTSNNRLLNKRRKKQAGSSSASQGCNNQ
Text: as §1

BRSK1 = molecular target: T2, BRSK1 (Homo sapiens, UniProt Q8TDC3); test: Kinase profiling BRSK1; details: for remaining activity at 100 µM: read-out: residual kinase activity, BRSK1
T2 sequence (Q8TDC3 1-778): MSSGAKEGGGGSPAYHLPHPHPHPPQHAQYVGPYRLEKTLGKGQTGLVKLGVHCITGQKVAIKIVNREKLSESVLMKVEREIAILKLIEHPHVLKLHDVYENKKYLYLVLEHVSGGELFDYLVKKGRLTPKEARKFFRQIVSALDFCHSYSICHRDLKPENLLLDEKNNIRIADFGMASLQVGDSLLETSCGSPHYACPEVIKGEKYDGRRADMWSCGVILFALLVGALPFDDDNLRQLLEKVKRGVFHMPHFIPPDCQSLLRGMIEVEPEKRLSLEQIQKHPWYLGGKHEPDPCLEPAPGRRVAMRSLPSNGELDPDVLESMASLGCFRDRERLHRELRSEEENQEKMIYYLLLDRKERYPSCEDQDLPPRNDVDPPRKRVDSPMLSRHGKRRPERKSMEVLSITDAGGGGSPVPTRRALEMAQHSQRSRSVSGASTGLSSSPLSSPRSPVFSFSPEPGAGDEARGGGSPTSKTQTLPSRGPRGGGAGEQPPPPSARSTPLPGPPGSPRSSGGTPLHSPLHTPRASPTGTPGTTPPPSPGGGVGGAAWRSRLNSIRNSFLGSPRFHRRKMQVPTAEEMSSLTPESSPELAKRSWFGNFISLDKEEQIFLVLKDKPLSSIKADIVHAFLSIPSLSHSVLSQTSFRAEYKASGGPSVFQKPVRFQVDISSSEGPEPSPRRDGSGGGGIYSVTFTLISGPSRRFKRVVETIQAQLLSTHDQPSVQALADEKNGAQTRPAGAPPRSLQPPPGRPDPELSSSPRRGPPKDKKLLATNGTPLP
Text: as §1

DDR2 = molecular target: T3, DDR2 (Homo sapiens, UniProt Q16832); test: Kinase profiling DDR2; details: for remaining activity at 100 µM: read-out: residual kinase activity, DDR2
T3 sequence (Q16832 22-855): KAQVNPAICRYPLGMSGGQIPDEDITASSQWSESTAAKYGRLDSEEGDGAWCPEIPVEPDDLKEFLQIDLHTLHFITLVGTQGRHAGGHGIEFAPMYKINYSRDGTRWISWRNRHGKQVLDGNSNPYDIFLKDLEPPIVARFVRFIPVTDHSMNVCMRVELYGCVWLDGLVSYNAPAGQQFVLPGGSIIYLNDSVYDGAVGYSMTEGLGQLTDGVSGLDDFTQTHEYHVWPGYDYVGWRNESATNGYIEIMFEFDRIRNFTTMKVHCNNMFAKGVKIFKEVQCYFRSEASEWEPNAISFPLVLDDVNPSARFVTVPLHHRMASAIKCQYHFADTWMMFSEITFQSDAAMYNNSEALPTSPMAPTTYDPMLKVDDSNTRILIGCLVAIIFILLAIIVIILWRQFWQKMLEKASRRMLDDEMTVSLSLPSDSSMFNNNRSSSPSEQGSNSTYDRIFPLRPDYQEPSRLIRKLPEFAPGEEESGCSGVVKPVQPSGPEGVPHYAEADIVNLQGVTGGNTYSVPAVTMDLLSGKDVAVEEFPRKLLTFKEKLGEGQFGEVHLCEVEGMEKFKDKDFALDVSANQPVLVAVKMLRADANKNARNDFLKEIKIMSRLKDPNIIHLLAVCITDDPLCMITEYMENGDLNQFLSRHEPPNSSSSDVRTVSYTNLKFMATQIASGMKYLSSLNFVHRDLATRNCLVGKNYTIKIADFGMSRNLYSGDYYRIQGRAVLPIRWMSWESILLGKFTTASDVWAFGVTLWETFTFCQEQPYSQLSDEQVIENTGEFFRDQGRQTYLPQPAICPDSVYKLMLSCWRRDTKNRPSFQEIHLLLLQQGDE
Text: as §1

CK1γ2 = CK1γ2 (Homo sapiens, UniProt P78368); test: Kinase profiling CK1γ2; details: for remaining activity at 100 µM: read-out: residual kinase activity, CK1γ2
CK1γ2, sequence (P78368 whole entry): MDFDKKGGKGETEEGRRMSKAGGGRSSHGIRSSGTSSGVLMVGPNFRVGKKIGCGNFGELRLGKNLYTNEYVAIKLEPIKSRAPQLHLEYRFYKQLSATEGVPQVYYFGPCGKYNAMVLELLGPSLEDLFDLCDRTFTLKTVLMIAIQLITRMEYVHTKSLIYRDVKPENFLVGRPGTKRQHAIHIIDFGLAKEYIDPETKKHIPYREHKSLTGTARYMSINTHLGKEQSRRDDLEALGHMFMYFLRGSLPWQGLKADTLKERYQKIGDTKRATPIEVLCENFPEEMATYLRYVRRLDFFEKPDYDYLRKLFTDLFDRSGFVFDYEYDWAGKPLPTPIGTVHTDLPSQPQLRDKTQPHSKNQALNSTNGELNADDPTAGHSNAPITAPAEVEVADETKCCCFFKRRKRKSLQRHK
Text: as §1

MARK2 = MARK2 (Homo sapiens, UniProt Q7KZI7); test: Kinase profiling MARK2; details: for remaining activity at 100 µM: read-out: residual kinase activity, MARK2
MARK2, sequence (Q7KZI7 whole entry, species assumed): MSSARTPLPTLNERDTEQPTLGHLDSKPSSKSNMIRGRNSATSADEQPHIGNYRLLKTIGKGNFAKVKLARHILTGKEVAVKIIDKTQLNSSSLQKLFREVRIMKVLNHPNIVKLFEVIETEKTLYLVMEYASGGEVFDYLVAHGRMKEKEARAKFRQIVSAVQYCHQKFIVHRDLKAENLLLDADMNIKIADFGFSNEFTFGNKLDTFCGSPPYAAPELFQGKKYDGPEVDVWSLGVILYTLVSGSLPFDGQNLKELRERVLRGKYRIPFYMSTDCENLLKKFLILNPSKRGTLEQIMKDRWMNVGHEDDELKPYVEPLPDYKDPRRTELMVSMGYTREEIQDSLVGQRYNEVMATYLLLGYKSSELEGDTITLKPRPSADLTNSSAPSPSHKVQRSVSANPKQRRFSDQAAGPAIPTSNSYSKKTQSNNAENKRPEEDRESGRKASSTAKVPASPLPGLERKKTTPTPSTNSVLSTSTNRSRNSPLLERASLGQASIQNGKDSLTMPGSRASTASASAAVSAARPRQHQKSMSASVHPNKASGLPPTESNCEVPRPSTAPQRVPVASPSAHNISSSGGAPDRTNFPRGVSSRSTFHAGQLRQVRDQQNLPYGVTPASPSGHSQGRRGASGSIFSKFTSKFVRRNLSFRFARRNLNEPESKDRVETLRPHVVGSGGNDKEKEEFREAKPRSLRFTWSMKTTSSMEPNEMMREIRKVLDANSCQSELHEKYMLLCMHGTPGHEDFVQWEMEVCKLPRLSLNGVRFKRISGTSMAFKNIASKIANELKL
Text: as §1

MAP4K5 = MAP4K5 (Homo sapiens, UniProt Q9Y4K4); test: Kinase profiling MAP4K5; details: for remaining activity at 100 µM: read-out: residual kinase activity, MAP4K5
MAP4K5, sequence (Q9Y4K4 whole entry, species assumed): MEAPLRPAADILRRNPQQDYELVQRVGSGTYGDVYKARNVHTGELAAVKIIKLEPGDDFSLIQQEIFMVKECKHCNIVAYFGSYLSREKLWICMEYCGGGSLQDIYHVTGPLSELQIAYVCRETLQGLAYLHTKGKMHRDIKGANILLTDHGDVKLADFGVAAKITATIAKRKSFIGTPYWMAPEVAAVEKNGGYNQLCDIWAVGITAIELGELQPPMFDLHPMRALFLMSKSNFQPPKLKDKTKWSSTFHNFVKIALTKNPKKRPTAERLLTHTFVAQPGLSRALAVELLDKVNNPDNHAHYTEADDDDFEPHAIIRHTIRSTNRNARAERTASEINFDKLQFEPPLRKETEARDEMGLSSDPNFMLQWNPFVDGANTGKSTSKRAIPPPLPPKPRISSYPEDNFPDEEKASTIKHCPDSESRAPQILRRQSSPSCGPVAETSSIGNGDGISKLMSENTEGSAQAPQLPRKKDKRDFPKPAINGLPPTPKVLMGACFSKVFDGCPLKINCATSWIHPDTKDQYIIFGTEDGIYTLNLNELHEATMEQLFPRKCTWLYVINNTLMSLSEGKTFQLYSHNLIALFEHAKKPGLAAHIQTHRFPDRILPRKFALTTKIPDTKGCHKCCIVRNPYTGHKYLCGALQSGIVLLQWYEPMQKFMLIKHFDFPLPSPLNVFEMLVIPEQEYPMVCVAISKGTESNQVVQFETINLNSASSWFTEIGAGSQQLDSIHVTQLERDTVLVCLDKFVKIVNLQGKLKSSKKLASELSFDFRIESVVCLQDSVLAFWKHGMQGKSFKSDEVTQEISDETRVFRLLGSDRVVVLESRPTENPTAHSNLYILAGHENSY
Text: as §1

[1] = 100 micromolar inhibitor concentration, 100 is no change
[2] = 100 micromolar inhibitor, 100 = no change

| Compound | remaining activity at 100 µM (TLK1; [1]) [%] | remaining activity at 100 µM (MAPKAP-K3; [1]) [%] | remaining activity at 100 µM (BRSK1; [1]) [%] | remaining activity at 100 µM (DDR2; [1]) [%] | remaining activity at 100 µM (CK1γ2; [1]) [%] | remaining activity at 100 µM (MARK2; [1]) [%] | remaining activity at 100 µM (MAP4K5; [1]) [%] | residual kinase activity, TLK1 (TLK1; [1]) | residual kinase activity, MAPKAP-K3 (MAPKAP-K3; [1]) | residual kinase activity, BRSK1 (BRSK1; [1]) | residual kinase activity, MAP4K5 (MAP4K5; [1]) | residual kinase activity, DDR2 (DDR2; [1]) | residual kinase activity, CK1γ2 (CK1γ2; [1]) | residual kinase activity, MARK2 (MARK2; [1]) | other results |
| --- | --- | --- | --- | --- | --- | --- | --- | --- | --- | --- | --- | --- | --- | --- | --- |
| CC(=O)Nc1nc2cc(O)ccc2s1 [Compound 01-66, N-(5-hydroxybenzo[d]thiazol-2-yl)acetamide] |  |  |  |  |  |  |  |  |  |  |  |  |  |  | remaining activity at 100 µM (TLK1): 92%; remaining activity at 100 µM (MAPKAP-K3): 39%; remaining activity at 100 µM (BRSK1): 48%; remaining activity at 100 µM (DDR2): 65%; remaining activity at 100 µM (CK1γ2): 6%; remaining activity at 100 µM (MARK2): 63% |
| CC(=O)Nc1nc2ccc(O)cc2s1 [Compound 01-71] | 45 | 34 | 16 | 56 | 10 | 54 |  |  |  |  |  |  |  |  |  |
| CC(=O)Nc1nc2ccc(C(F)(F)F)cc2s1 [Compound 01-90] | 82 | 101 | 83 | 62 | 59 | 74 | 40 |  |  |  |  |  |  |  |  |
| CC(=O)Nc1nc2ccc(C#N)cc2s1 [Compound 01-94] | 53 | 101 | 62 | 93 | 18 | 53 | 38 |  |  |  |  |  |  |  |  |
| CC(=O)Nc1cccc(NC(=O)c2nc3ccc(O)cc3s2)c1 [Compound 03-07, N-(3-acetamidophenyl)-6-hydroxybenzo[d]thiazole-2-carboxamide] |  |  |  |  |  |  |  |  |  |  |  |  |  |  | remaining activity at 100 µM (TLK1; [2]): 108%; remaining activity at 100 µM (MAPKAP-K3; [2]): 34%; remaining activity at 100 µM (BRSK1; [2]): 52%; remaining activity at 100 µM (MAP4K5; [2]): 56%; remaining activity at 100 µM (DDR2; [2]): 90%; remaining activity at 100 µM (CK1γ2; [2]): 77%; remaining activity at 100 µM (MARK2; [2]): 73% |
| O=C(Nc1nc2cc(O)ccc2s1)c1ccncc1 [Compound 03-11] |  |  |  |  |  |  |  | 95 | 68 | 70 | 92 | 115 | 81 | 79 |  |
| O=C(Nc1nc2ccc(O)cc2s1)c1ccccn1 [Compound 03-12] |  |  |  |  |  |  |  | 96 | 31 | 63 | 74 | 104 | 57 | 90 |  |
| O=C(Nc1nc2cc(O)ccc2s1)c1ccccn1 [Compound 03-13] |  |  |  |  |  |  |  | 99 | 62 | 95 | 50 | 85 | 83 | 84 |  |
| COc1ccc2sc(NC(C)=O)nc2c1 [Compound 03-21] | 97 | 97 | 85 | 102 | 6 | 103 | 96 |  |  |  |  |  |  |  |  |
| CC(=O)Nc1nc2ccccc2s1 [Compound 03-32] |  |  |  |  |  |  |  | 92 | 61 | 95 | 95 | 97 | 41 | 88 |  |
| O=C(Nc1nc2cc(O)ccc2s1)c1cccnc1 [Compound 03-33] |  |  |  |  |  |  |  | 97 | 97 | 83 | 58 | 109 | 25 | 102 |  |
| O=C(Nc1nc2ccc(O)cc2s1)c1ccccc1 [Compound 03-60] |  |  |  |  |  |  |  | 74 | 92 | 43 | 31 | 112 | 3 | 65 |  |
| CC(=O)Nc1nc2cc(C(F)(F)F)ccc2s1 [Compound 03-73] | 103 | 93 | 83 | 111 | 79 | 99 | 73 |  |  |  |  |  |  |  |  |
| CC(=O)Nc1nc2cc(C)ccc2s1 [Compound 03-76] |  |  |  |  |  |  |  | 106 | 106 | 75 | 83 | 110 | 54 | 97 |  |
| CC(=O)Nc1nc2cc(F)ccc2s1 [Compound 03-77] | 89 | 107 | 78 | 101 | 22 | 79 | 65 |  |  |  |  |  |  |  |  |
